# Experimental data: US20240209456A1, “METHODS AND COMPOSITIONS RELATED TO CELL-CYCLE RNA's” (BETH ISRAEL DEACONESS MEDICAL CENTER, priority 2021, published 2024)
# Entries after “also recorded” stand apart in the source; their conditions may differ.
# Test system: H2A.Z
# Test: nascent ChIP-qPCR (nasChIP) with H2A.Z antibody
# Format: cell-based, human
# Conditions: for restoration of H2A.Z distribution at c-MYC locus after DRB reversal: HL-60, 2 hrs after DRB wash-out, MG149 200 μM, TH1834 500 μM
# Protocol: To confirm the results of the ChIP-Seq, and to track the deposition of the H2A.Z, acH2A.Z nascent chromatin immunoprecipitation (nasChIP-PCR) was performed with the antibodies to H2A.Z, acH2A.Z and TIP60, as nasChIP-PCR can be used to track histone deposition. Cells were synchronized with a double thymidine block, released into S Phase and treated with DRB for 2 hrs. The medium was supplemented with the EdU DNA analog to enable collection of nascent chromatin DNA (FIG. 4A). […] The results of these experiments provide an important link between the suppressed c-MYC SPEARs expression and the reduced levels of the replacement histone H2A.Z, as an even greater degree of the loss of the acetylated acH2A.Z forms at the TSS of the c-MYC locus. Similar results were obtained for another gene locus, PU1 (FIG. 4F, right panels).
# Cells were synchronized with a double thymidine block and released into S Phase with DMSO/DRB added. After 2 hours (during which H2A.Z levels remained unaffected, but SPEARs and mRNA levels drop, see FIG. 10A), cells were washed and then incubated for a further 2 hours with or without the TIP60 inhibitors. This interval is sufficient for the levels of both the c-MYC mRNAs and its SPEARs to be restored when the TIP60 inhibitors are absent (results shown in FIG. 11B). […] Collected RNAs were biotinylated by click chemistry, isolated on streptavidin beads and analyzed by nas-qRT-PCR (see “Methods” below for details; FIG. 8A; bottom panel).
# To further confirm that SPEARs realize their c-MYC regulatory function directly through the TIP60/acH2A.Z pathway, the differences in chromatin occupancy of H2A.Z, acH2A.Z and TIP60 were assessed after inhibition of transcription (“DRB”), reversal of inhibition (“DRB REV”) and reversal of inhibition in the presence of the two TIP60 inhibitors, using nasChIP-qPCR. […] Furthermore, no enrichments of H2A.Z, acH2A.Z or TIP60 was detected within the Gene Desert locus (FIG. 11C). […]
Compound,restoration of H2A.Z distribution at c-MYC locus after DRB reversal,"H2A.Z enrichment at c-MYC locus (HL-60 released into S Phase, DRB 2 hrs)"
O=C(O)Cn1nnc(-c2ccc(CN(CCCCOc3ccc(CN4CCCC4)cc3)CCc3ccccc3)cc2)n1 [TH1834],only slightly affecting,
"OC[C@H]1O[C@@H](n2cnc3cc(Cl)c(Cl)cc32)[C@H](O)[C@@H]1O [DRB, 5,6-Dichlorobenzimidazole 1-β-D-ribofuranoside]",,diminished enrichment; also recorded: partial loss
CCCCCCCc1ccc(CCc2cccc(O)c2C(=O)O)cc1 [MG149],only slightly affecting,
